# Values quoted from earlier work in PMC12006171, “Marsupial cathelicidins: characterization, antimicrobial activity and evolution in this unique mammalian lineage” (Frontiers in Immunology, 2025).
# Where two headings read alike, the source gives them in different places.
# Experiments:
# [1] = system: three fungi (Candida krusei, Candida parapsilosis, Candida albicans); design: method as in 4 sources, ref Peel et al 2016 ||| ref Peel et al 2021 ||| ref Wang et al 2011 ||| ref Peel et al 2017; details: cited from earlier work
# [2] = system: six bacteria (S. aureus, E. coli, P. aeruginosa; ATCC and clinical isolate); design: method as in 4 sources, ref Peel et al 2016 ||| ref Peel et al 2021 ||| ref Wang et al 2011 ||| ref Peel et al 2017; details: cited from earlier work
# [3] = mature peptide, Y/N summary from earlier study, ref Peel et al 2016
# [4] = mature peptide (MP), Y/N summary, ref Peel et al 2017
# [5] = mature peptide, Y/N summary from earlier study, ref Peel et al 2017
# [6] = mature peptide, Y/N summary from earlier study, ref Peel et al 2021
sequence,measurement,setting,value
GIKHILFMAKTKLPRATCTAEIKENCDRKK [SahaCath1],Antifungal (MIC <64ug/mL),[1]; [3],N (Peel et al 2016) (Antifungal (MIC <64ug/mL))
same,Antibacterial (MIC <64ug/mL),[2]; [3],N (Peel et al 2016) (Antibacterial (MIC <64ug/mL))
LYRRRKYPTSYYLLLGGKGNNRGYKPHIIYV [ModoCath11],Antifungal (MIC <64ug/mL),[1]; [4],N (Peel et al 2017) (Antifungal (MIC <64ug/mL))
same,Antibacterial (MIC <64ug/mL),[2]; [4],N (Peel et al 2017) (Antibacterial (MIC <64ug/mL))
GEKVKTRFIAAIEKLIDTFLP [MaeuCath3],Antifungal (MIC <64ug/mL),[1]; [5],N (Peel et al 2017) (Antifungal (MIC <64ug/mL))
same,Antibacterial (MIC <64ug/mL),[2]; [5],N (Peel et al 2017) (Antibacterial (MIC <64ug/mL))
LKKIFGSIVKKAVSKGVAEGLKAVDEARKAEKKGKK [ModoCath1],Antifungal (MIC <64ug/mL),[1]; [4],N (Peel et al 2017) (Antifungal (MIC <64ug/mL))
same,Antibacterial (MIC <64ug/mL),[2]; [4],N (Peel et al 2017) (Antibacterial (MIC <64ug/mL))
PGRKKGSKRHKPGSYSVIALGKPGVKKSPYMEAL [MaeuCath8],Antifungal (MIC <64ug/mL),[1]; [5],N (Peel et al 2017) (Antifungal (MIC <64ug/mL))
same,Antibacterial (MIC <64ug/mL),[2]; [5],N (Peel et al 2017) (Antibacterial (MIC <64ug/mL))
IKIFIPKGFYKGIQLVNEIIKENNERQKQKP [ModoCath12],Antifungal (MIC <64ug/mL),[1]; [4],N (Peel et al 2017) (Antifungal (MIC <64ug/mL))
same,Antibacterial (MIC <64ug/mL),[2]; [4],N (Peel et al 2017) (Antibacterial (MIC <64ug/mL))
SVPGTRAQSGTTSPGSGSRRVARSRG [OranCath6],Antifungal (MIC <64ug/mL),[1]; [4],N (Peel et al 2017) (Antifungal (MIC <64ug/mL))
same,Antibacterial (MIC <64ug/mL),[2]; [4],N (Peel et al 2017) (Antibacterial (MIC <64ug/mL))
PPEPLRFKRIRCLNGRKCNYHNLLLTIVPHWRIPKGK [PhciCath3],Antifungal (MIC <64ug/mL),[1]; [6],N (Peel et al 2021) (Antifungal (MIC <64ug/mL))
same,Antibacterial (MIC <64ug/mL),[2]; [6],N (Peel et al 2021) (Antibacterial (MIC <64ug/mL))
ASSGIIDTSSLPPKIRQIYNQAVYDTLVGILRNF [PhciCath6],Antifungal (MIC <64ug/mL),[1]; [6],N (Peel et al 2021) (Antifungal (MIC <64ug/mL))
same,Antibacterial (MIC <64ug/mL),[2]; [6],N (Peel et al 2021) (Antibacterial (MIC <64ug/mL))
LKKFFSSMIKKAVSKGISKGISKGIQEVDKAIKQKK [ModoCath2],Antifungal (MIC <64ug/mL),[1]; [4],N (Peel et al 2017) (Antifungal (MIC <64ug/mL))
same,Antibacterial (MIC <64ug/mL),[2]; [4],N (Peel et al 2017) (Antibacterial (MIC <64ug/mL))
KREDFLDQIIRDFRNFIYQKYRRLRDEFRKLRDILSG [SahaCath4],Antifungal (MIC <64ug/mL),[1]; [3],N (Peel et al 2016) (Antifungal (MIC <64ug/mL))
same,Antibacterial (MIC <64ug/mL),[2]; [3],N (Peel et al 2016) (Antibacterial (MIC <64ug/mL))
VSESISHGIPKAISAVNKLIKKKKKGATTPRVK [ModoCath6],Antifungal (MIC <64ug/mL),[1]; [4],N (Peel et al 2017) (Antifungal (MIC <64ug/mL))
same,Antibacterial (MIC <64ug/mL),[2]; [4],N (Peel et al 2017) (Antibacterial (MIC <64ug/mL))
STILEDPGKIRERRDIGEEPIQKKQKMYRDQMQ [SahaCath7],Antifungal (MIC <64ug/mL),[1]; [6],N (Peel et al 2021) (Antifungal (MIC <64ug/mL))
same,Antibacterial (MIC <64ug/mL),[2]; [6],N (Peel et al 2021) (Antibacterial (MIC <64ug/mL))
TFKRKNGSRKNGHRPGGYSLIALGNKKVLKAPYMESI [SahaCath2],Antifungal (MIC <64ug/mL),[1]; [3],N (Peel et al 2016) (Antifungal (MIC <64ug/mL))
same,Antibacterial (MIC <64ug/mL),[2]; [3],N (Peel et al 2016) (Antibacterial (MIC <64ug/mL))
KRGLWESLKRKVTKLGDDIRNTLRNFKIKFPVPRQG [MaeuCath7],Antifungal (MIC <64ug/mL),[1]; [5],N (Peel et al 2017) (Antifungal (MIC <64ug/mL))
same,Antibacterial (MIC <64ug/mL),[2]; [5],Y (Peel et al 2017) (Antibacterial (MIC <64ug/mL))
